Data reported in patent US20090312407A1, “Synthetic Flavonoids and Pharmaceutical Compositions and Therapeutic Methods of Treatment of Cancer and other Pathologies” (priority 2007, published 2009).
“And” between values parts separate entries of the source, which are not always exact repeats. Identical values can stand only once. Like-named read-outs stand apart in the source and are kept apart here.

What was measured:
H-9 cells = assay: Cytotoxicity on H-9 cells; type: cell-based; details: H-9 cells; same conditions as AZT
Source text: (§1) The purified and identified analogs were subjected to in vitro biological testing.
These three congeners were further evaluated in H9 and PC3 cells. AZT was employed as a positive control in all of these experiments.

MCF-7 cells = assay: Cytotoxicity on MCF-7 cells; type: cell-based; details: for Cells (×10^4) Mean / Cells (×10^4): Table 17, 12-12 to 12-16/2005; for % Inhibition / inhibition at 1 µg/mL / inhibition at 5 µg/mL / inhibition at 10 µg/mL / inhibition at 50 µg/mL: vs 2% DMSO, Table 17; for inhibition at 1 µg/mL / inhibition at 5 µg/mL / inhibition at 10 µg/mL / inhibition at 50 µg/mL: Homo sapiens; for inhibition at 1 µg/mL: MCF7, 1 μg/ml; for inhibition at 5 µg/mL: MCF7, 5 μg/ml; for inhibition at 10 µg/mL: MCF7, 10 μg/ml; for inhibition at 50 µg/mL: MCF7, 50 μg/ml
PC-3 cells = assay: Cytotoxicity on PC-3 cells; type: cell-based; details: PC-3 cells; same conditions as AZT
Source text: as §1

benzodiazepine receptor = details: cited from earlier work
[1] = attributed to 3-OH group; cited from earlier work
[2] = test system: multidrug resistant cells; details: collateral sensitivity; cited from earlier work
[3] = single count, read-out: % Inhibition

SMILES: COc1cc(C=CC(=O)c2cc(C)cc([N+](=O)[O-])c2O)cc(OC)c1OC (stereo in doubt) [CHNM 3M]
- inhibitory activity / growth inhibition compared to AZT (H-9 cells): much superior
- Cells (×10^4) Mean (MCF-7 cells; 1 μg/ml): 44.50 ×10^4
- % Inhibition (MCF-7 cells; 1 μg/ml, single count): 11.62%
- Cells (×10^4) (MCF-7 cells; 1 μg/ml, single count): 44.3 ×10^4 and 45.0 ×10^4
- Cells (×10^4) Mean (MCF-7 cells; 5 μg/ml): 24.75 ×10^4
- % Inhibition (MCF-7 cells; 5 μg/ml, single count): 52.86% and 51.88%
- Cells (×10^4) (MCF-7 cells; 5 μg/ml, single count): 25.8 ×10^4 and 24.0 ×10^4 and 24.5 ×10^4
- Cells (×10^4) Mean (MCF-7 cells; 10 μg/ml): 4.92 ×10^4
- % Inhibition (MCF-7 cells; 10 μg/ml, single count): 90.67%
- Cells (×10^4) (MCF-7 cells; 10 μg/ml, single count): 5.0 ×10^4 and 4.8 ×10^4
- Cells (×10^4) Mean (MCF-7 cells; 50 μg/ml): 1.75 ×10^4
- % Inhibition (MCF-7 cells; 50 μg/ml, single count): 96.07% and 97.05%
- Cells (×10^4) (MCF-7 cells; 50 μg/ml, single count): 1.8 ×10^4 and 2.0 ×10^4 and 1.5 ×10^4
- inhibition at 1 µg/mL (MCF-7 cells; [3]): 13.1%
- inhibition at 1 µg/mL (MCF-7 cells; read-out: % Inhibition Mean): 12.6%
- inhibition at 5 µg/mL (MCF-7 cells; [3]): 49.4%
- inhibition at 5 µg/mL (MCF-7 cells; read-out: % Inhibition Mean): 51.4%
- inhibition at 10 µg/mL (MCF-7 cells; [3]): 90.2%
- inhibition at 10 µg/mL (MCF-7 cells; read-out: % Inhibition Mean): 90.3%
- inhibition at 50 µg/mL (MCF-7 cells; [3]): 96.6%
- inhibition at 50 µg/mL (MCF-7 cells; read-out: % Inhibition Mean): 96.6%
- inhibitory activity / growth inhibition compared to AZT (MCF-7 cells; MCF-7 cells, same conditions as AZT): much superior
- cytotoxic activities on MCF-7 cells (MCF-7 cells; different drug concentrations): good cytotoxic activities
- inhibitory activity / growth inhibition compared to AZT (PC-3 cells): much superior

SMILES: O=c1cc(-c2cccc([N+](=O)[O-])c2)oc2ccc(Br)cc12 [6-bromo-3′-nitroflavone]
- activity as benzodiazepine receptor ligand compared to diazepam (benzodiazepine receptor): close or higher than that of diazepam

SMILES: O=c1cc(-c2ccccc2)oc2ccc(Br)cc12 [6-bromoflavone]
- activity as benzodiazepine receptor ligand compared to diazepam (benzodiazepine receptor): close or higher than that of diazepam

SMILES: O=c1c(O)c(-c2ccc(O)c(O)c2)oc2cc(O)cc(O)c12 [quercetin]
- mutagenic properties [1]: some mutagenic properties

SMILES: O=c1cc(-c2ccccc2)oc2ccc3ccccc3c12 [β-naphthoflavone]
- toxicity to multidrug resistant cells vs drug-sensitive counterparts [2]: considerably more toxic to multidrug resistant cells than to their drug-sensitive counterparts
